The values that follow come from US12157882B2, “Lactobacillus plantarum strain ATG-K2, ATG-K6 or ATG-K8, and composition for preventing or treating vaginitis comprising same” (ATOGEN CO., LTD, priority 2018, dated 2024).

Experiment [1] can be described thus: Bile salt hydrolase (BSH) activity on MRS agar with 0.5% sodium taurocholic acid. Conditions: MRS agar with 0.5% (w/v) TDCA, anaerobic, 37° C., about 72 hr. Here is the method:
In order to confirm the presence or absence of bile salt hydrolase (BSH) activity as the function of each of the lactic-acid bacteria, an experiment was performed in accordance with the method described in Dashkevicz and Feighner (1989). Briefly, an agar medium was prepared by adding 0.5% (w/v) sodium taurocholic acid (TDCA, Sigma-Aldrich, Germany) to MRS.

Experiment [2] relates to Gardnerella vaginalis KCTC5096 (GV). Description: Growth inhibition by cell-free culture supernatant (CFCS). The format is cell-based. As to conditions: CFCS at 1× concentration, culture for 48 hr, OD600. On the procedure: (§1) In order to measure the activity of the lactic-acid bacteria culture solution on inhibiting the growth of vaginitis pathogens, a 10-fold-concentrated cell-free culture supernatant (CFCS) was prepared. The culture solution of each of K2, K6 and K8 lactic-acid bacteria was centrifuged at 4,000 rpm for 25 min, thereby separating the cells of the lactic-acid bacteria and the culture supernatant from each other. The culture supernatant was filtered using a 0.2 μm pore syringe filter (Sartorius, Germany). The filtered culture supernatant was lyophilized and suspended in 1×PBS to afford a solution concentrated 10-fold compared to the volume of the initial culture solution. CA was inoculated at a concentration of 1×10^5 CFU/ml and GV was inoculated at a concentration of 1×10^6 CFU/ml under individual culture conditions. The CFCS of lactic-acid bacteria was added in a volume corresponding to 0.1 times the final volume to the vaginitis-pathogen-inoculated solution so as to reach 1×, and the test group not added with CFCS was used as a control. The mixed composition was cultured for 24 hr for CA and 48 hr for GV under individual vaginitis-pathogen culture conditions, and the absorbance was measured at a wavelength of OD600. Based on the measured absorbance, growth inhibition was determined using the following cytotoxicity calculation equation. In this equation, ODcontrol represents the absorbance of the control, and ODcfcs represents the absorbance of the CFCS-added group. Growth inhibition (%)=(ODcontrol−ODcfcs)/ODcontrol×100

In experiment [3] the test system is Candida albicans KCTC7678 (CA). The description is as above. The format is cell-based. Conditions: CFCS at 1× concentration, culture for 24 hr, OD600. Here is the method:
as §1

Experiment [4] concerns Staphylococcus aureus KCTC1621 (SA). In words: Disc test, clear zone. The format is cell-based. Conditions: 35 μl culture solution on 8 mm paper disc, disc diameter subtracted; average of four tests. On the procedure: (§2) In order to confirm the antimicrobial functionality of K2, K6 and K8, the antimicrobial activity of lactic-acid bacteria K2, K6 and K8 against a total of seven types of infectious or opportunistic bacteria, including four types of gram-positive SA, LM, SM, and SS and three types of gram-negative EC, PA, and CS, was determined by measuring clear zones through a disc test. Seven types of bacteria cultured overnight in a BHI plate medium were each suspended in 1× phosphate-buffered saline (PBS) until OD600 of about 0.8 was obtained. Each suspension was absorbed with a sterile cotton swab, spread over an agar medium for an antimicrobial activity test for lactic-acid bacteria, in which BHI and MRS were mixed at a ratio of 1:1, and dried for about 3 min. Each 8 mm paper disc (Advantec, Japan) was attached to the dried test agar medium, and 35 μl of each of K2, K6, and K8 solutions cultured in an MRS broth for about 18 to 20 hr was inoculated to the paper disc, dried for about 3 min, cultured at 37° C. and observed. The size of the clear zone formed after culture was determined in a manner in which the diameter thereof was measured and was calculated after subtracting 8 mm, which is the diameter of the paper disc. The unit for the diameter of the clear zone, which is each numerical value in Table 4, is mm, and each abbreviation is as follows: Staphylococcus aureus KCTC1621 (SA), Listeria monocytogenes KCTC3569 (LM), Streptococcus mutans KCTC3065 (SM), Streptococcus salivarius ATG-P1 (SS), Escherichia coli KCTC1682 (EC), Pseudomonas aeruginosa KCTC2004 (PA), Cronobacter sakazakii KCTC2949 (CS).

The subject of experiment [5] is Escherichia coli KCTC1682 (EC). In words: Disc test, clear zone. It counts as cell-based. Conditions: 35 μl culture solution on 8 mm paper disc, disc diameter subtracted; average of four tests. On the procedure: as §2
For experiment [6], the system named is Streptococcus mutans KCTC3065 (SM). In words: Disc test, clear zone. The format is cell-based. Conditions: 35 μl culture solution on 8 mm paper disc, disc diameter subtracted; average of four tests. On the procedure:
as §2

In experiment [7] the test system is Streptococcus salivarius ATG-P1 (SS). Description: Disc test, clear zone. It counts as cell-based. Conditions: 35 μl culture solution on 8 mm paper disc, disc diameter subtracted; average of four tests. On the procedure:
as §2

Experiment [8] relates to Pseudomonas aeruginosa KCTC2004 (PA). In words: Disc test, clear zone. It counts as cell-based. Conditions: 35 μl culture solution on 8 mm paper disc, disc diameter subtracted; average of four tests. On the procedure: as §2
The test system of experiment [9] is Listeria monocytogenes KCTC3569 (LM). Description: Disc test, clear zone. Conditions: 35 μl culture solution on 8 mm paper disc, disc diameter subtracted; average of four tests. It counts as cell-based. Here is the method:
as §2

Experiment [10] has as its system Cronobacter sakazakii KCTC2949 (CS). In words: Disc test, clear zone. The format is cell-based. As to conditions: 35 μl culture solution on 8 mm paper disc, disc diameter subtracted; average of four tests. Here is the method:
as §2

For experiment [11], the system named is TNF-α in mouse macrophage cell line RAW264.7. In words: TNF-α ELISA, RAW264.7 cells treated with lactic-acid bacteria lysate. Conditions: lysate 100 μg/ml and 500 μg/ml, 24 hr. The format is cell-based. On the procedure:
In order to measure the immunological effects of K2, K6 and K8 lactic-acid bacteria, a cytokine quantification experiment using cells was performed. The cells that were used were a mouse macrophage cell line RAW264.7, and the medium used for each cell experiment was a Gibco® Dulbecco's Modified Eagle Medium (DMEM, Gibco, USA) supplemented with 10% fetal bovine serum (Gibco, USA) and 1% penicillin/streptomycin cocktail (Sigma-Aldrich, Germany). RAW264.7 cells cultured at about 80-90% confluency before material treatment were recovered and seeded in an amount of 1×10^6 cells per well of a 24-well plate. After seeding, culture was carried out in an environment of 37° C. and 5% CO2 for 24 hr in order to realize attachment to the 24-well plate and stabilization thereof. Each well was treated with the lactic-acid bacteria lysate at concentrations of 100 μg/ml and 500 μg/ml, and 1 μg/ml of lipopolysaccharide (LPS, Sigma-Aldrich, Germany) was used as a positive control, and an experimental group not treated with any material was used as a negative control. The cells were cultured at 37° C. and 5% CO2 for 24 hr after material treatment, and the cell culture solution was recovered, followed by enzyme-linked immunosorbent assay (ELISA) for IL-6 and TNF-α. Measurement was performed for IL-6 using a Mouse IL-6 Quantikine ELISA Kit (R&D systems, USA) and for TNF-α using a Mouse TNF-alpha Quantikine ELISA Kit (R&D systems, USA).

As to “Lactobacillus plantarum ATG-K6 [Lb. plantarum ATG-K6]”, the “bile salt hydrolase (BSH) activity” value in [1] is listed as “exhibited BSH activity”. Further, in [2], the “growth inhibition of GV” value was 28.25%. In addition, the “growth inhibition of CA” value in experiment [3] came to 82.11%. In [4], the “diameter of the clear zone SA” value amounted to 4.88 ± 0.21 mm. Moreover, in experiment [5], the “diameter of the clear zone EC” value was 3.50 ± 0.18 mm. Further, the “diameter of the clear zone SM” value in experiment [6] was determined as 4.13 ± 0.11 mm. For the same substance, the “diameter of the clear zone SS” value in experiment [7] was 3.13 ± 0.11 mm. Moreover, in experiment [8], the “diameter of the clear zone PA” value is recorded as 4.00 ± 0.18 mm. In experiment [9], the “diameter of the clear zone LM” value is 4.75 ± 0.13 mm. In addition, the “diameter of the clear zone CS” value in [10] worked out at 6.13 ± 0.11 mm. Besides, the “TNF-α production compared to the control” value in experiment [11] is recorded as “induced”.

Consider “Lactobacillus plantarum ATG-K8 [Lb. plantarum ATG-K8]”, for which the “bile salt hydrolase (BSH) activity” value in [1] is “exhibited BSH activity”. In addition, in experiment [2], the “growth inhibition of GV” value is 44.60%. The “growth inhibition of CA” value in [3] was found to be 81.34%. Further, the “diameter of the clear zone SA” value in [4] amounted to 4.25 ± 0.13 mm. Further, in experiment [5], the “diameter of the clear zone EC” value worked out at 3.50 ± 0.18 mm. In addition, the “diameter of the clear zone SM” value in experiment [6] stood at 3.88 ± 0.11 mm. For the same substance, the “diameter of the clear zone SS” value in [7] amounted to 4.00 ± 0.18 mm. Moreover, the “diameter of the clear zone PA” value in experiment [8] is given as 3.88 ± 0.11 mm. Also, in experiment [9], the “diameter of the clear zone LM” value amounted to 5.18 ± 0.21 mm. Further, the “diameter of the clear zone CS” value in [10] worked out at 5.88 ± 0.11 mm. Besides, the “TNF-α production compared to the control” value in experiment [11] is listed as “induced”.

Turning to “Lactobacillus plantarum ATG-K2 [Lb. plantarum ATG-K2]”, the “bile salt hydrolase (BSH) activity” value in experiment [1] is “exhibited BSH activity”. In addition, the “growth inhibition of GV” value in experiment [2] is 37.49%. Further, the “growth inhibition of CA” value in experiment [3] is 87.05%. In addition, the “diameter of the clear zone SA” value in experiment [4] was determined as 5.00 ± 0.18 mm. Further, the “diameter of the clear zone EC” value in experiment [5] was 3.38 ± 0.21 mm. Further, the “diameter of the clear zone SM” value in experiment [6] was determined as 4.75 ± 0.28 mm. The “diameter of the clear zone SS” value in [7] stood at 4.13 ± 0.11 mm. For the same substance, in [8], the “diameter of the clear zone PA” value was 3.75 ± 0.13 mm. Further, in experiment [9], the “diameter of the clear zone LM” value worked out at 5.50 ± 0.18 mm. Further, the “diameter of the clear zone CS” value in experiment [10] amounted to 6.50 ± 0.18 mm. Moreover, the “TNF-α production compared to the control” value in experiment [11] was “induced”.
